Where two headings read alike, the source gives them in different places. Where a SMILES comes first, the peptide text is derived from it. Where no end group is shown, it is not given here.
What was measured:
[1] = test system: MELOE-1, HLA A*0201 restricted CD8 T cell clone; conditions: for cross-presentation compared with full length MELOE-1 / native antigen (in words): full length MELOE-1 as reference; for Fold change = EC50 (M) of MELOE-111-46/EC50 (M) SLP: SLP MELOE-113-27 xxxx MELOE-136-44, TNF-a response of CD8 T cell clone to SLP-loaded DC, range over independent experiments
[2] = test system: MELOE-1, HLA DRb1*11 restricted CD4 T cell clone
[3] = test system: CD4 MELOE-113-27-specific T cell clone (HLA DRB1*01 restricted)
Text: MELOE-111-46 native long peptide and SLP with the linker GGGG (SEQ ID NO:160) were used as controls.

[4] = test system: CD8+ splenocytes restimulated with MELOE-136-44; test: Immunization of transgenic mice with SLP, CD8 ELISpot-IFN-g; type: in vivo, HLA-DRB1*0101/HLA-A*0201 transgenic mice; conditions: INFg-ELIspot; positive if spots more than twice background and above ten; s.c. 100 μg prime, 50 μg boosts, IFA + polyI:C
Description: CD8+ splenocytes from immunized mice were tested by INFg-ELIspot following restimulation with the short epitope MELOE-136-44. Mice were considered positive if the number of spots after restimulation were more than twice the background level and above ten spots.
HLA-DRB1*0101/HLA-A*0201 transgenic mice (A2/DR1 mice) were used to evaluate immunogenicity of peptides. Group of 5 female A2/DR1 mice (6 to 10 weeks) were immunized subcutaneously with 100 μg of each peptides emulsified in incomplete Freund adjuvant (v/v) plus 50 μg of polyI:C. At day 14 and day 28 boost vaccinations were performed with 50 μg of each peptide along with the same adjuvants. All experiments were carried out according to the good laboratory practices defined by the animal experimentation Rules in France.
Specific immune responses were evaluated 10 days after the last boost by ELISpot-IFN-g (Diaclone, France). Briefly, freshly isolated splenocytes or CD8 positive T cells from spleen (CD8+ T Cell Isolation Kit, Miltenyi Biotec) were incubated (2.105 cells per well) during 15-20 hours in ELISpot plate in the presence of the class I MELOE-1 epitope (5 μg/ml final) or medium (X-vivo, as negative control) or PMA-ionomycin (positive control). Ex vivo CD4 T cell responses were evaluated on the CD8 negative fraction as above with the HLA-DRB1*0101-restricted epitope MELOE-113-27. […] Spot-forming cells were counted using the «C.T.L. Immunospot» system (Cellular Technology Ltd). Results were considered positive when the ELISPOT counts were >10 spots and above 2× the background (medium). (Dosset et al Clin Cancer Res, 2012)
Finally, we explored the immunogenicity of our SLP in vivo in HLA-DRB1*0101/HLA-A*0201 transgenic mice. Mice were immunized subcutaneously with 100 μg of SLP in IFA and poly I:C and boosted at D14 and D28 with 50 μg of SLP with the same adjuvants (see M&M). We focused on cross-presentation and thus assessed CD8 T cell responses by ELISpot-IFN-g after re-stimulation with the short MELOE-1136-44 epitope (SEQ ID NO:31) or with medium alone. A mouse was considered responder when ELIspots were above 10 and at least twice about background. A typical experiment is presented in FIG. 7 comparing immunization with SLP containing MELOE-113-27 (SEQ ID NO:21) and MELOE-136-44 (SEQ ID NO:31) with linker GGGG (SEQ ID NO:160) or LLSVGG (SEQ ID NO:9). Immunization with SLP containing GGGG (SEQ ID NO:160) generated moderate CD8 responses in 3 out of five mice while immunization with SLP with LLSVGG (SEQ ID NO:9) was efficient in all 5 mice with two mice showing robust CD8 responses. Previous experiments performed with the shorter linkers LLSV (SEQ ID NO:4) or LLSVG (SEQ ID NO:8) also supported the hypothesis that our synthetic linkers favored cross-presentation when compared to either the linker GGGG or the native sequence (Table 4). In contrast, CD4 responses evaluated ex vivo towards the HLA-DRB1*0101 epitope were very low (FIG. 7C).

[5] = read-out: EC50, cross-presentation of the HLA-A*0201-restricted MELOE-1 epitope, SLP series MELOE-1 11-23 xxxx MELOE-1 36-44, three independent experiments, FIG. 3

Row | Compound | EC50 [1, 5] [nM] | Fold change = EC50 (M) of MELOE-111-46/EC50 (M) SLP [1] | cross-presentation compared with full length MELOE-1 / native antigen (in words) [1] | also measured
1 | CC(C)C[C@H](NC(=O)[C@@H](NC(=O)CNC(=O)CNC(=O)CNC(=O)CNC(=O)[C@H](Cc1c[nH]c2ccccc12)NC(=O)[C@@H]1CCCN1C(=O)[C@@H]1CCCN1C(=O)[C@H](CS)NC(=O)[C@H](C)NC(=O)[C@H](C)NC(=O)CNC(=O)[C@H](CCC(=O)O)NC(=O)[C@H](CO)NC(=O)[C@@H]1CCCN1C(=O)[C@H](CC(C)C)NC(=O)[C@H](Cc1ccccc1)NC(=O)[C@H](CCC(N)=O)NC(=O)[C@H](CCC(=O)O)NC(=O)[C@H](CCCNC(=N)N)NC(=O)[C@H](CO)NC(=O)[C@@H](NC(=O)[C@H](C)NC(=O)[C@H](C)N)[C@@H](C)O)[C@@H](C)O)C(=O)N[C@@H](CC(N)=O)C(=O)N[C@@H](CC(=O)O)C(=O)N[C@@H](CCC(=O)O)C(=O)N[C@@H](CS)C(=O)N[C@@H](Cc1c[nH]c2ccccc12)C(=O)N1CCC[C@H]1C(=O)N[C@@H](C)C(=O)O [GGGG (MELOE-111-23 xxxx MELOE-136-44), reference compound] (H-AATSREQFLPSEGAACPPWGGGGTLNDECWPA-OH; N-terminus and C-terminus assumed) | – | – | poorer cross-presentation | EC50 [1]: 1200 nM
2 | GSGS [GSGS (MELOE-111-23 xxxx MELOE-136-44)] | 430 | – | poorer cross-presentation | –
3 | MSCVGYPDEATSREQFLPSEGAACPPWHPSERISSTLNDECWPASL (cysteines drawn unpaired) [full length MELOE-1, reference compound] | – | – | – | EC50 [2]: ~70 nM
4 | TSREQFLPSEGAACPPWVLSVGTLNDECWPASL (Synthetic SLP) [SEQ ID NO: 71] | – | 3-13 | ten fold | –
5 | LLSV [LLSV (MELOE-111-23 xxxx MELOE-136-44)] | 2.8 | – | hundred fold better | –
6 | CC(C)C[C@H](NC(=O)[C@H](CO)NC(=O)[C@H](C)NC(=O)[C@@H]1CCCN1C(=O)[C@H](Cc1c[nH]c2ccccc12)NC(=O)[C@H](CS)NC(=O)[C@H](CCC(=O)O)NC(=O)[C@H](CC(=O)O)NC(=O)[C@H](CC(N)=O)NC(=O)[C@H](CC(C)C)NC(=O)[C@@H](NC(=O)CNC(=O)[C@@H](NC(=O)[C@H](CO)NC(=O)[C@H](CC(C)C)NC(=O)[C@H](CC(C)C)NC(=O)[C@H](Cc1c[nH]c2ccccc12)NC(=O)[C@@H]1CCCN1C(=O)[C@@H]1CCCN1C(=O)[C@H](CS)NC(=O)[C@H](C)NC(=O)[C@H](C)NC(=O)CNC(=O)[C@H](CCC(=O)O)NC(=O)[C@H](CO)NC(=O)[C@@H]1CCCN1C(=O)[C@H](CC(C)C)NC(=O)[C@H](Cc1ccccc1)NC(=O)[C@H](CCC(N)=O)NC(=O)[C@H](CCC(=O)O)NC(=O)[C@H](CCCNC(=N)N)NC(=O)[C@H](CO)NC(=O)[C@@H](N)[C@@H](C)O)C(C)C)[C@@H](C)O)C(=O)O [SEQ ID NO: 89] (H-TSREQFLPSEGAACPPWLLSVGTLNDECWPASL-OH; N-terminus and C-terminus assumed) | – | 10-20 | – | EC50 [3]: 6.8 nM; CD8 responses, positive mice, Exp#2 [4]: 2/5
7 | TSREQFLPSEGAACPPWPLSVIITLNDECWPASL (Synthetic SLP) [SEQ ID NO: 79] | – | 2.3-10 | – | –
8 | TSREQFLPSEGAACPPWSLSVGGTLNDECWPASL (Synthetic SLP) [SEQ ID NO: 75] | – | 1-8 | – | –
9 | TSREQFLPSEGAACPPWVLSVGGTLNDECWPASL (Synthetic SLP) [SEQ ID NO: 69] | – | 1.5-2 | – | –
10 | CC[C@H](C)[C@H](NC(=O)[C@H](CCCNC(=N)N)NC(=O)[C@H](CCC(=O)O)NC(=O)[C@H](CO)NC(=O)[C@@H]1CCCN1C(=O)[C@H](Cc1c[nH]cn1)NC(=O)[C@H](Cc1c[nH]c2ccccc12)NC(=O)[C@@H]1CCCN1C(=O)[C@@H]1CCCN1C(=O)[C@H](CS)NC(=O)[C@H](C)NC(=O)[C@H](C)N)C(=O)N[C@@H](CO)C(=O)N[C@@H](CO)C(=O)N[C@H](C(=O)N[C@@H](CC(C)C)C(=O)N[C@@H](CC(C)C)C(=O)N[C@H](C(=O)NCC(=O)N[C@@H](CO)C(=O)N[C@H](C(=O)N[C@@H](CC(C)C)C(=O)N[C@@H](CC(N)=O)C(=O)N[C@@H](CC(=O)O)C(=O)N[C@@H](CCC(=O)O)C(=O)N[C@@H](CS)C(=O)N[C@@H](Cc1c[nH]c2ccccc12)C(=O)N1CCC[C@H]1C(=O)N[C@@H](C)C(=O)N[C@@H](CO)C(=O)N[C@@H](CC(C)C)C(=O)O)[C@@H](C)O)C(C)C)[C@@H](C)O [LVGS (MELOE-124-37 xxxx MELOE-136-44)] (H-AACPPWHPSERISSTLLVGSTLNDECWPASL-OH) | – | – | – | EC50 [2]: 14 nM; EC50 [1]: 110 nM
11 | CC[C@H](C)[C@H](NC(=O)[C@H](CCCNC(=N)N)NC(=O)[C@H](CCC(=O)O)NC(=O)[C@H](CO)NC(=O)[C@@H]1CCCN1C(=O)[C@H](Cc1c[nH]cn1)NC(=O)[C@H](Cc1c[nH]c2ccccc12)NC(=O)[C@@H]1CCCN1C(=O)[C@@H]1CCCN1C(=O)[C@H](CS)NC(=O)[C@H](C)NC(=O)[C@H](C)N)C(=O)N[C@@H](CO)C(=O)N[C@@H](CO)C(=O)N[C@H](C(=O)N[C@@H](CC(C)C)C(=O)NCC(=O)NCC(=O)NCC(=O)NCC(=O)N[C@H](C(=O)N[C@@H](CC(C)C)C(=O)N[C@@H](CC(N)=O)C(=O)N[C@@H](CC(=O)O)C(=O)N[C@@H](CCC(=O)O)C(=O)N[C@@H](CS)C(=O)N[C@@H](Cc1c[nH]c2ccccc12)C(=O)N1CCC[C@H]1C(=O)N[C@@H](C)C(=O)N[C@@H](CO)C(=O)N[C@@H](CC(C)C)C(=O)O)[C@@H](C)O)[C@@H](C)O [GGGG (MELOE-124-37 xxxx MELOE-136-44), reference compound] (H-AACPPWHPSERISSTLGGGGTLNDECWPASL-OH; N-terminus and C-terminus assumed) | – | – | – | EC50 [2]: 26 nM; EC50 [1]: 1900 nM
12 | TSREQFLPSEGAACPPWGLSVVVTLNDECWPASL (Synthetic SLP) [SEQ ID NO: 85] | – | 1 | – | –

More lines, main results first:

Row | EC50 [1, 5] [nM] | Fold change = EC50 (M) of MELOE-111-46/EC50 (M) SLP [1] | Compound | cross-presentation compared with full length MELOE-1 / native antigen (in words) [1] | also measured
13 | – | 7-8 | TSREQFLPSEGAACPPWSLSVAATLNDECWPASL (Synthetic SLP) [SEQ ID NO: 73] | – | –
14 | 3.2 | – | PIVLG [PIVLG (MELOE-111-23 xxxx MELOE-136-44)] | hundred fold better | –
15 | 12 | – | ASLG [ASLG (MELOE-111-23 xxxx MELOE-136-44)] | ten fold better presentation | –
16 | 34 | – | LVGS [LVGS (MELOE-111-23 xxxx MELOE-136-44)] | ten fold better presentation | –
17 | – | 1-3 | TSREQFLPSEGAACPPWALSVGGTLNDECWPASL (Synthetic SLP) [SEQ ID NO: 77] | – | –
18 | 2.1 | – | VLSVG [VLSVG (MELOE-111-23 xxxx MELOE-136-44)] | hundred fold better | –
19 | – | 1 | TSREQFLPSEGAACPPWGLSVGGTLNDECWPASL (Synthetic SLP) [SEQ ID NO: 81] | – | –

— US12144851B2, “Vaccinal strategy” (INSERM (INSTITUT NATIONAL DE LA SANTÉ ET DE LA RECHERCHE …, priority 2018, dated 2024)
